Each block holds one compound with its values, some of them ahead of it.
Key:
Integrase [1] = molecular target: T1, Integrase (Human immunodeficiency virus 1, UniProt Q7ZJM1); test: Integration of DNA by HIV -1 integrase
Integrase [2] = molecular target: T1, Integrase; test: Inhibitory activity against 3'-processing of DNA byHIV-1 integrase
Integrase [3] = molecular target: T1, Integrase; test: Inhibitory activity against 3'-processing of DNA by HIV-1 integrase

T1 sequence (Q7ZJM1 whole entry): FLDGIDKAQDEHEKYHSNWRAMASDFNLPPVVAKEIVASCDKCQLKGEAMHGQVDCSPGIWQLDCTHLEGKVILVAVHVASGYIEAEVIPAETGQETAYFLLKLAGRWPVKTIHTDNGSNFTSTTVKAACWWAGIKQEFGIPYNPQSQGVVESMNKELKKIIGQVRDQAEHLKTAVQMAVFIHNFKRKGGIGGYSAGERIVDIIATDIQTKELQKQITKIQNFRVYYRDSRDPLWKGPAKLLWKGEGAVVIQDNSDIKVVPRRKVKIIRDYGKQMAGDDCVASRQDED

IC50 (Integrase [1]): 12 µM
Structure (SMILES): O=c1oc2ccccc2c(O)c1C(c1cc(OCc2ccccc2)cc(OCc2ccccc2)c1)c1c(O)c2ccccc2oc1=O

Structure (SMILES): O=c1oc2ccccc2c(O)c1C(c1ccc([N+](=O)[O-])cc1)c1c(O)c2ccccc2oc1=O
IC50 (Integrase [2]): 50 µM

Structure (SMILES): O=c1oc2ccccc2c(O)c1C(c1ccc(-c2ccccc2)cc1)c1c(O)c2ccccc2oc1=O
IC50 (Integrase [3]): 14 µM

Structure (SMILES): O=c1oc2ccccc2c(O)c1C(c1ccc2ccccc2c1)c1c(O)c2ccccc2oc1=O
IC50 (Integrase [3]): 20 µM
IC50 (Integrase [1]): 16 µM

Structure (SMILES): CN(C)c1ccc(C(c2c(O)c3ccccc3oc2=O)c2c(O)c3ccccc3oc2=O)cc1
IC50 (Integrase [3]): 100 µM
IC50 (Integrase [1]): 50 µM
IC50 (Integrase [2]): 88 µM

Structure (SMILES): O=c1oc2ccccc2c(O)c1C(c1ccco1)c1c(O)c2ccccc2oc1=O
IC50 (Integrase [3]): 34 µM

Structure (SMILES): O=c1oc2ccccc2c(O)c1C(c1cccs1)c1c(O)c2ccccc2oc1=O
IC50 (Integrase [3]): 100 µM

Structure (SMILES): O=c1oc2ccccc2c(O)c1C(c1ccc(OCc2ccccc2)cc1)c1c(O)c2ccccc2oc1=O [3-[4-benzyloxyphenyl(4-hydroxy-2-oxo-2H-3-chromenyl)methyl]-4-hydroxy-2H-2-chromenone]
IC50 (Integrase [3]): 19 µM

Structure (SMILES): O=c1oc2ccccc2c(O)c1C(c1ccc2c(c1)Cc1ccccc1-2)c1c(O)c2ccccc2oc1=O [3-[9H-2-fluorenyl(4-hydroxy-2-oxo-2H-3-chromenyl)methyl]-4-hydroxy-2H-2-chromenone]
IC50 (Integrase [3]): 11 µM

IC50 (Integrase [3]): 34 µM
Structure (SMILES): O=c1oc2ccccc2c(O)c1Cc1cccc(Cc2c(O)c3ccccc3oc2=O)c1 [4-hydroxy-3-[3-(4-hydroxy-2-oxo-2H-3-chromenylmethyl)benzyl]-2H-2-chromenone]

Source: BindingDB's records for doi:10.1021/jm960450v (National Cancer Institute-Bethesda, 1997)
